Measured values reported in patent US11098336B2, “Biosynthesis of bioorthogonal amino acids” (The Regents of the University of California, priority 2017, dated 2021).

Assays:
BesB = biological target: T1, BesB (Streptantibioticus cattleyicolor, UniProt G8XHD7); assay: BesB terminal-alkyne (Pra) formation in vitro; isomerization, D2O exchange and PLP-conjugate trapping; format: biochemical, Streptomyces cattleya; details: for formation of Pra by BesB from substrate: in vitro; for binding to BesB as PLP-conjugate: chemical reduction with imine-reducing reagents
T1 construct: made in house
Protocol: We next turned our attention to formation of the terminal-alkyne. BesB belongs to a family of proteins that utilize pyrodoxyal-5′-phosphate (PLP) as cofactor. Incubating purified BesD, BesC, and BesB in the presence of iron, ascorbate, lysine, and PLP was sufficient to produce Pra in vitro. This order of events is […] to how terminal-alkynes are synthesized chemically, since biosynthesis of Pra involves elimination of an alkyl-halide to a terminal-alkyne. Terminal desaturations have previously only been observed on fatty acids and catalyzed by O2/di-iron dependent fatty acid desaturases. […] From in vitro characterization, we also found it was necessary for the amino acid substrate to be halogenated at the Cγ position.
(§1) While formation of allene-quinonoid can be mechanistically explained, there is no precedence of an enzyme catalyzed allene-alkyne isomerization. One possibility is that BesB forms α-allenyl-glycine enzymatically and isomerization occurs after α-allenyl-glycine is released from PLP. […] Another possibility is BesB produces and releases α-allenyl-glycine, and is subsequently enzymatically isomerized. […] Finally, we explored the possibility of α-allenyl-glycine binding to BesB as a PLP-conjugate by chemically reducing the whole complex with imine-reducing reagents.

BesA = BesA (Streptantibioticus cattleyicolor, UniProt G8XHD8); assay: BesA dipeptide formation in vitro with glutamate and ATP, substrate specificity; format: biochemical, Streptomyces cattleya; details: for activity as BesA substrate (ligation to glutamate): reacted with glutamate, ATP
Source text: We then explored the specifity of BesA by reacting glutamate with norvaline, allylglycine, and the remaining 19 canonical amino acids.
BesA shares homology to carboxylate-amine ligases, which form amides between amines and carboxylates through an ATP-dependent mechanism.

BesE = BesE (Streptantibioticus cattleyicolor, UniProt F8JJ27); assay: BesE hydroxylation in vitro in the presence of ascorbate and α-KG; format: biochemical, Streptomyces cattleya
Source text: Knockout strain of putative amino acid hydroxylase, BesE, was only capable of producing Pra. […] This lead us to believe that there might be an amino acid carrier that serves as the true substrate for BesE. Through comparative metabolomics, we were able to identify a metabolite enriched in S. cattleya ΔbesE over wildtype. This compound was also present, but at low concentration, in S. cattleya ΔbesA. We identified this compound as having mass consistent with a Pra-Glu dipeptide. When this compound was fragmented we were able to detect characteristic fragments consistent with an amide bond cleavage, supporting evidence that this compound is a Pra-Glu dipeptide.
The last dedicated enzyme involved in the biosynthesis of βes is BesE. Once we had identified Pra-Glu as the product of BesA, it became apparent that the true substrate of BesE is a Pra-Glu dipeptide. S. cattleya ΔbesB, ΔbesC, ΔbesD, and ΔbesE were unable to produce measurable amounts of the dipeptides in vivo. In comparison, ΔbesA was still able to produce βes-Glu but at lower titers when compared to S. cattleya wildtype.

BesD from S. cattleya = BesD from S. cattleya (Streptantibioticus cattleyicolor, UniProt G8XHD5); assay: BesD enzyme-coupled assay that reports on succinate production; format: biochemical, Streptomyces cattleya
Source text: Activity of BesD from S. cattleya on L-lysine was first screened using an enzyme-coupled assay that reports on succinate production.

BesC = biological target: T2, BesC (Streptantibioticus cattleyicolor, UniProt F8JJ25); assay: BesC coupled reaction with BesD, cofactors and lysine; format: biochemical, Streptomyces cattleya; details: cofactors
T2 construct: made in house
Source text: To further characterize BesC, we then tested the ability of BesC to produce 4-Cl-allygllycine in vitro. Addition of Fe(II) to purified apo-enzyme supports the observed reaction, while omission of Fe(II) results in no reaction, supporting the Fe-dependence of the enzyme.

cystathionine-γ-lyase = details: previously identified; cited from earlier work
[1] = spontaneous isomerization of free α-allenyl-glycine in buffered solution / D2O; format: physicochemical
Source text: as §1

BesD from S. cattleya, sequence (G8XHD5 whole entry): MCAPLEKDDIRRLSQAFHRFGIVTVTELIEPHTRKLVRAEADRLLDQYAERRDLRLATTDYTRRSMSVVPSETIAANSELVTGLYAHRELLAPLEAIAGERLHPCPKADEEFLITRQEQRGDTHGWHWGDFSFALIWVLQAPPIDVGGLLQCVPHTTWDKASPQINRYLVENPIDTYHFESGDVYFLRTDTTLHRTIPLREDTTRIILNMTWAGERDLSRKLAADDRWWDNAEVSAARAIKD
T1 sequence (G8XHD7 whole entry): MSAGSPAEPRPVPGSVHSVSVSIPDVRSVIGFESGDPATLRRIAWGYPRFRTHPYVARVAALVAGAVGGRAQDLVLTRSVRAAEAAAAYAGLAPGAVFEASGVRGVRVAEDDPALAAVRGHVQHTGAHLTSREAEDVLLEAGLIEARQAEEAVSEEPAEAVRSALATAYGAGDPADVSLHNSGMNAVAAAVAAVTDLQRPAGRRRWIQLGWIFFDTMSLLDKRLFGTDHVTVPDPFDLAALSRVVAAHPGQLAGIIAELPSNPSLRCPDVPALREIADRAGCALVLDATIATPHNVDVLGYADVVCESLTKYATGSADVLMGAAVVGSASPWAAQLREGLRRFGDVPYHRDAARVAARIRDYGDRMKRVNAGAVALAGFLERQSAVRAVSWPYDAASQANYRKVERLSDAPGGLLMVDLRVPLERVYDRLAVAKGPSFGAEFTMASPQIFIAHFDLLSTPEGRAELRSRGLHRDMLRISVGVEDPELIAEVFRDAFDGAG
BesA, sequence (G8XHD8 whole entry): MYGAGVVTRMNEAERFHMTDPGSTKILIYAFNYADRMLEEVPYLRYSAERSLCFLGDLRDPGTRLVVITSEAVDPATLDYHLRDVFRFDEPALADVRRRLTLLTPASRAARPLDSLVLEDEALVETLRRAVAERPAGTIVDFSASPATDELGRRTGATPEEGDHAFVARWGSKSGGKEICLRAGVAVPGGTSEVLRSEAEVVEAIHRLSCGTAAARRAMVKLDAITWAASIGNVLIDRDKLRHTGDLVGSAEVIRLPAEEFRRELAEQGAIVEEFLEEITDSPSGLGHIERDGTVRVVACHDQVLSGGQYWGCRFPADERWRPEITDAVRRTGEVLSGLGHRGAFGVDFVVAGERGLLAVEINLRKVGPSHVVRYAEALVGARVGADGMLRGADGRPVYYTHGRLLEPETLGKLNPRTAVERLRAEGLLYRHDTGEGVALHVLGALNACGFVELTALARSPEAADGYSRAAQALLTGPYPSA
BesE, sequence (F8JJ27 whole entry, the tested form may be a part): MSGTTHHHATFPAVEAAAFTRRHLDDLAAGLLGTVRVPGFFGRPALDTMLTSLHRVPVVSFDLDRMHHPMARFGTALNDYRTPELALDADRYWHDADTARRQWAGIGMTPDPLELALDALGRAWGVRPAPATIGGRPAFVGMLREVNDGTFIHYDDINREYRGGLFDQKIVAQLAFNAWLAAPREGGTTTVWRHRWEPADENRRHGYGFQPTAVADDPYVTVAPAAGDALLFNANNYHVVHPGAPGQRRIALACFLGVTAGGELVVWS
T2 sequence (F8JJ25 whole entry): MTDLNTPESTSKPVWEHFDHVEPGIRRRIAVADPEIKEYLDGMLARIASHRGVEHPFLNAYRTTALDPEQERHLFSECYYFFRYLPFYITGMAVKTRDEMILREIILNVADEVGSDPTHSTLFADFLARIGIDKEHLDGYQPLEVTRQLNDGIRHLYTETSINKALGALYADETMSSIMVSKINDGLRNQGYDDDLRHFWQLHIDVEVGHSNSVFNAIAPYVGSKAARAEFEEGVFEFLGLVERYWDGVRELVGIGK

With C=C(Br)CC(N)C(=O)O (stereo not shown) [4-Br-allylglycine] the “formation of Pra by BesB from substrate” value (BesB) was “able to form Pra”.
With C=C(Cl)CC(N)C(=O)O (stereo not shown) [4-Cl-allylglycine] the “formation of Pra by BesB from substrate” value (BesB) was “able to form Pra”.
With N[C@@H](CS)C(=O)O [Cys, cysteine] the “activity as BesA substrate (ligation to glutamate)” value (“activity as BesA substrate” for short) (BesA) was “measurable activity”.
In the case of C#CC[C@H](NC(=O)CC[C@H](N)C(=O)O)C(=O)O [Glu-Pra dipeptide, γ-Glu-α-Pra], the “reaction with BesE (hydroxylation)” value (BesE) is reported as “able to hydroxylate”.
In the case of NCCCC[C@H](N)C(=O)O [L-lysine], the “BesD activity with substrate (rate of NADH production)” value (from here on “BesD activity with substrate”) (BesD from S. cattleya) is reported as “greatest” and the “accepted as BesC substrate” value (BesC) is reported as “accepts lysine as a substrate directly to form allylglycine”.
In the case of C#CCC(N)C(=O)O (stereo not shown) [Pra, propargylglycine], the “Km for Pra relative to Km for Cys” value (BesA; BesA substrate) is reported as 10 fold lower, the “kcat, Pra compared with Cys” value (BesA; BesA substrate) is reported as “comparable” and the “activity as BesA substrate” value (BesA) is reported as “measurable activity”. For the same molecule, the “binding to BesB as PLP-conjugate” value (BesB) was “able to observe Pra as a PLP bound species”, the “reaction with BesE (hydroxylation)” value (BesE) was “no reaction was observed” and the “inhibition of PLP proteins including cystathionine-γ-lyase” value (cystathionine-γ-lyase) was “mechanistic, suicide inhibitor”.
For C=CCC(N)C(=O)O (stereo not shown) [allylglycine], the “activity as BesA substrate” value (BesA) was “Pra and Cys were the only two amino acids to show any measurable activity” and the “formation of Pra by BesB from substrate” value (BesB) was “not when allylglycine is a substrate”.
With N=C(N)NCCC[C@H](N)C(=O)O [arginine] the “BesD activity with substrate” value (BesD from S. cattleya) was “no activity”.
For CCC[C@H](N)C(=O)O [norvaline], the “activity as BesA substrate” value (BesA) was “Pra and Cys were the only two amino acids to show any measurable activity” and the “BesD activity with substrate” value (BesD from S. cattleya) was “no activity”.
For C=C=CC(N)C(=O)O (stereo not drawn) [α-allenyl-glycine, reference compound], the “binding to BesB as PLP-conjugate” value (BesB) was “unable to bind BesB”, the “D2O exchange in the presence of BesB” value (BesB; incubated with BesB in D2O) was “neglible D2O exchange” and the “isomerization by BesB” value (BesB; incubated with BesB in D2O) was “no isomerization”. The “spontaneous formation of Pra” value ([1]; buffered solution, 24 h, room temperature) was “did not produce detectable amounts of Pra” and the exchange with solvent ([1]; incubated in D2O, no enzyme) was “negligible exchange”.
